# Paper PMC8760490, “Discovery of novel furanylbenzamide inhibitors that target oncogenic tyrosine phosphatase SHP2 in leukemia cells” (The Journal of Biological Chemistry, 2021)
# “Also recorded” adds a separate entry of the source.
# Key:
# [1] = test system: phospho-ERK1/2 (p-ERK1/2) in U-937 AML cells; assay: p-ERK1/2 immunoblot, U-937; format: cell-based; details: SBI-4668 1, 3, 10, 30 μM, RMC-4550 1 μM
# From the text: Oncogenic gain-of-function mutations in SHP2 drive leukemogenesis in a significant number of leukemia patients. However, because of their unique mechanism of action, the existing SHP2 allosteric inhibitors lack activity against the most common SHP2 oncogenic variants. Thus, we tested whether our inhibitors could inhibit the growth of leukemia cells expressing oncogenic SHP2 variants. […] Thus, we tested both SBI-4668 and RMC-4550 on U-937 AML cells, which harbor a G60R oncogenic mutation in SHP2. We treated cells with either SBI-4668 or RMC-4550 at various concentrations, ranging from 0.123 to 30 μM (Fig. 5A). […] We also assessed the effects of SBI-4668 and RMC-4550 on ERK1/2 activation in the SHP2 mutant U-937 cell line. Similar to the immunoblot experiments described for MOLM-13 cells above, U-937 AML cells were treated with either vehicle control (DMSO), SBI-4668 (1, 3, 10, or 30 μM), or with RMC-4550 (1 μM) for 24 h and processed for p-ERK1/2 immunoblot analysis (Fig. 5B).
# Cells cultured in RPMI medium were treated as indicated in the legends to the figures. […] Densitometric quantitation of immunoblots was performed using Image Studio Lite Software (LI-COR). Changes of phosphorylated ERK1/2 to total ERK1/2 ratios are expressed as percentage of the vehicle-treated controls. […]
# SHP2cat = target: T1, SHP2cat (Homo sapiens, UniProt Q06124); assay: Jump-dilution inhibition assay; format: biochemical; details: 10× preincubation 10 min, 10× jump dilution
# T1 construct: the SHP2 catalytic domain (SHP2cat; residues 248–527); made in house
# T1 sequence (Q06124 248-527): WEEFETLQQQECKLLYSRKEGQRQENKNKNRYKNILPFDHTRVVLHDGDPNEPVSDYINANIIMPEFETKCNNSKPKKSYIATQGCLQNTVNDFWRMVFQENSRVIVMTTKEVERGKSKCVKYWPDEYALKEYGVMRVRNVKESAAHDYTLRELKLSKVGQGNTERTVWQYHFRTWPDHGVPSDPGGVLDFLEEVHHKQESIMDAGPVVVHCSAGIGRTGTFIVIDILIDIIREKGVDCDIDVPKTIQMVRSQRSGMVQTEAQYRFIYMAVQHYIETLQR
# Protocol: PTPs contain a highly nucleophilic cysteine that is essential for catalytic activity but is susceptible to oxidation and covalent modifications, which abrogate its nucleophilic function and phosphatase activity ([26]). Because the methylenebenzothiophenone moiety of our inhibitors could potentially act as a Michael acceptor and thus covalently bind to the catalytic cysteine, we tested whether the observed inhibition of SHP2 was dependent on the preincubation time of inhibitor and enzyme. An irreversible covalent inhibitor may show time-dependent inhibition, with increased potency at longer incubation times. […] To test for time-dependent inhibition, SBI-2130 at ten different concentrations was preincubated with SHP2-E76K for 1, 5, 10, 20, or 60 min, before the DiFMUP substrate was added to the reaction mixture and initial rates were recorded (Fig. 3C). […]
# SBI-2130 was tested for reversibility of inhibition in a jump-dilution experiment using SHP2cat. […] The enzyme reaction was started by the addition of 5 μl of DiFMUP working solution (100 μM in 50 mM Bis–Tris, pH 6.0, 50 mM NaCl, 0.5 mM EDTA, and 0.01% Tween-20), and fluorescence intensity was measured in kinetic mode (every minute for 10 min) using a Tecan Spark Multimode Microplate Reader as described previously. […] The initial rates were determined from the linear progression curves of the SHP2cat reaction. […]
Structure (SMILES),"p-ERK1/2 levels, U-937, 24 h [1]",reversibility: IC50 curves jump dilution vs regular dose–response (SHP2cat)
"O=C(Nc1ccccc1)c1cc(-c2ccc(/C=C3\Sc4ccccc4C3=O)o2)ccc1O [SBI-4668, (Z)-2-Hydroxy-5-(5-((3-oxobenzo[b]thiophen-2(3H)-ylidene)methyl)furan-2-yl)-N-phenylbenzamide]",dose-dependently inhibited ERK1/2 activation,
"Nc1ccc(NC(=O)c2cc(-c3ccc(/C=C4\Sc5ccccc5C4=O)o3)ccc2O)cc1 [SBI-2130, (Z)-N-(4-Aminophenyl)-2-hydroxy-5-(5-((3-oxobenzo[b]thiophen-2(3H)-ylidene)methyl)furan-2-yl)benzamide]",,reversible inhibitor; also recorded: practically identical
